Patent US20260374756A1, “HETEROCYCLIC COMPOUNDS AS INHIBITORS OF MONOACYLGLYCEROL LIPASE (MAGL)” (Hoffmann-La Roche Inc., priority 2022, published 2026)

Molecular target: T1, hMAGL (Homo sapiens, UniProt Q99685)
T1 sequence (Q99685 1-303): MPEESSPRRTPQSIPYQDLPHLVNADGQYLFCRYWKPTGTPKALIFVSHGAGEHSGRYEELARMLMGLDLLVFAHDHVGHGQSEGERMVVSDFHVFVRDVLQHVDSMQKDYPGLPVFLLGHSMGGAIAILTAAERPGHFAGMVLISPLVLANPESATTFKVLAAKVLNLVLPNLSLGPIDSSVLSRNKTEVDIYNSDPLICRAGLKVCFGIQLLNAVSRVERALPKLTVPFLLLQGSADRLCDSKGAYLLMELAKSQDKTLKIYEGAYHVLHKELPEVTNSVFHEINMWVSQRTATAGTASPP
Experiment: 2-AG assay: MAGL inhibition, hydrolysis of 2-arachidonoylglycerol to arachidonic acid followed by mass spectrometry
Format: biochemical
Description: Compounds of formula (I) were profiled for MAGL inhibitory activity by determining the enzymatic activity by following the hydrolysis of the natural substrate 2-arachidonoylglycerol (2-AG) resulting in arachidonic acid, which can be followed by mass spectrometry. This assay is hereinafter abbreviated “2-AG assay”. The 2-AG assay was carried out in 384 well polypropylene assay plates. […] Compound dilutions were added to MAGL protein in assay buffer (50 mM TRIS, 1 mM EDTA, 0.01% (v/v) Tween-20, 2.5% (v/v) DMSO). After shaking, the plate was incubated for 15 min at RT. To start the reaction, 2-arachidonoylglycerol in assay buffer was added. The final concentrations in the assay was […] for MAGL protein and 8 μM 2-arachidonoylglyerol. After shaking and 30 min incubation at RT, the reaction was quenched by the addition of two assay volumes of acetonitrile containing 4 μM of d8-arachidonic acid. The amount of arachidonic acid formed was traced by an online SPE system (Agilent Rapidfire) coupled to a triple quadrupole mass spectrometer. A C18 SPE cartridge (Agilent G9205A) was used in an acetonitrile/water liquid setup. […] The activity of the compounds was calculated based on the ratio of intensities [arachidonic acid/d8-arachidonic acid].

| IC50 | SMILES |
| --- | --- |
| 311 nM | Cc1c(CN2CC3(C2)CN(C(=O)N2CC4(CC(n5cnc(C(F)(F)F)n5)C4)C2)C3)cnn1CC(F)(F)F [Example 114, [6-[[5-methyl-1-(2,2,2-trifluoroethyl)pyrazol-4-yl]methyl]-2,6-diazaspiro[3.3]heptan-2-yl]-[6-[3-(trifluoromethyl)-1,2,4-triazol-1-yl]-2-azaspiro[3.3]heptan-2-yl]methanone] |
| 164 nM | Cn1cnc(C#N)c1CN1CC2(C1)CN(C(=O)N1CC3(CC(n4cnc(C5CC5)n4)C3)C1)C2 [Example 281, 5-[[2-[6-(3-cyclopropyl-1,2,4-triazol-1-yl)-2-azaspiro[3.3]heptane-2-carbonyl]-2,6-diazaspiro[3.3]heptan-6-yl]methyl]-1-methyl-imidazole-4-carbonitrile] |
| 0.81 nM | O=C(N1CC2(CC(Cc3cn(CC(F)(F)F)nc3C(F)(F)F)C2)C1)N1CC2(CC(n3cnc(C4(O)CC4)n3)C2)C1 [Example 120, [6-[3-(1-hydroxycyclopropyl)-1,2,4-triazol-1-yl]-2-azaspiro[3.3]heptan-2-yl]-[6-[[1-(2,2,2-trifluoroethyl)-3-(trifluoromethyl)pyrazol-4-yl]methyl]-2-azaspiro[3.3]heptan-2-yl]methanone] |
| 1.77 nM | O=C(N1CC2(CC(Cc3cn(CC(F)(F)F)nn3)C2)C1)N1CC2(CC(n3cnc(C4CC4)n3)C2)C1 [Example 347, [6-(3-cyclopropyl-1,2,4-triazol-1-yl)-2-azaspiro[3.3]heptan-2-yl]-[6-[[1-(2,2,2-trifluoroethyl)triazol-4-yl]methyl]-2-azaspiro[3.3]heptan-2-yl]methanone] |
| 79 nM | O=C(N1CC2(CC(n3cnc(C4CC4)n3)C2)C1)N1CC2(CN(Cc3cnn(CC(F)(F)F)n3)C2)C1 [Example 196, [6-(3-cyclopropyl-1,2,4-triazol-1-yl)-2-azaspiro[3.3]heptan-2-yl]-[6-[[2-(2,2,2-trifluoroethyl)triazol-4-yl]methyl]-2,6-diazaspiro[3.3]heptan-2-yl]methanone] |
| 9.41 nM | O=C(N1CC2(CC(Cc3n[nH]c(C4CC4)n3)C2)C1)N1CC2(CC(n3cnc(C(F)(F)F)n3)C2)C1 [Example 303, [6-[(5-cyclopropyl-1H-1,2,4-triazol-3-yl)methyl]-2-azaspiro[3.3]heptan-2-yl]-[6-[3-(trifluoromethyl)-1,2,4-triazol-1-yl]-2-azaspiro[3.3]heptan-2-yl]methanone] |
| 38.2 nM | Cc1c(CN2CC3(C2)CN(C(=O)N2CC4(CC(n5cnc(C6CC6)n5)C4)C2)C3)cnn1CC(F)(F)F [Example 115, [6-(3-cyclopropyl-1,2,4-triazol-1-yl)-2-azaspiro[3.3]heptan-2-yl]-[6-[[5-methyl-1-(2,2,2-trifluoroethyl)pyrazol-4-yl]methyl]-2,6-diazaspiro[3.3]heptan-2-yl]methanone] |
| 55.4 nM | Cn1cc(OC2CC3(C2)CN(C(=O)N2CC4(CC(n5cnc(C6(O)CC6)n5)C4)C2)C3)c(C(F)(F)F)n1 [Example 59, [6-[3-(1-hydroxycyclopropyl)-1,2,4-triazol-1-yl]-2-azaspiro[3.3]heptan-2-yl]-[6-[1-methyl-3-(trifluoromethyl)pyrazol-4-yl]oxy-2-azaspiro[3.3]heptan-2-yl]methanone] |
| 168 nM | O=C(N1CC2(CC(n3cnc(C(F)(F)F)n3)C2)C1)N1CC2(CN(Cc3coc(C(F)(F)F)n3)C2)C1 [Example 213, [6-[[2-(trifluoromethyl)oxazol-4-yl]methyl]-2,6-diazaspiro[3.3]heptan-2-yl]-[6-[3-(trifluoromethyl)-1,2,4-triazol-1-yl]-2-azaspiro[3.3]heptan-2-yl]methanone] |
| 2670 nM | O=C(N1CC2(CC(n3cnc(C(F)(F)F)n3)C2)C1)N1CC2(CN(Cc3cn(CC(F)(F)F)nn3)C2)C1 [Example 107, [6-[[1-(2,2,2-trifluoroethyl)triazol-4-yl]methyl]-2,6-diazaspiro[3.3]heptan-2-yl]-[6-[3-(trifluoromethyl)-1,2,4-triazol-1-yl]-2-azaspiro[3.3]heptan-2-yl]methanone] |
| 23.1 nM | O=C(N1CC2(CC(Cn3ncnc3C(F)(F)F)C2)C1)N1CC2(CC(n3cnc(C4(O)CC4)n3)C2)C1 [Example 325, [6-[3-(1-hydroxycyclopropyl)-1,2,4-triazol-1-yl]-2-azaspiro[3.3]heptan-2-yl]-[6-[[5-(trifluoromethyl)-1,2,4-triazol-1-yl]methyl]-2-azaspiro[3.3]heptan-2-yl]methanone] |
| 0.2 nM | Cc1cc(C(F)F)nn1CC1CC2(C1)CN(C(=O)N1CC3(CC(n4cnc(C5CC5)n4)C3)C1)C2 [Example 95, [6-(3-cyclopropyl-1,2,4-triazol-1-yl)-2-azaspiro[3.3]heptan-2-yl]-[6-[[3-(difluoromethyl)-5-methyl-pyrazol-1-yl]methyl]-2-azaspiro[3.3]heptan-2-yl]methanone] |
| 3.05 nM | Cc1cc(C(F)F)nn1CC1CC2(C1)CN(C(=O)N1CC3(CC(n4cnc(C5(O)CC5)n4)C3)C1)C2 [Example 96, [6-[[3-(difluoromethyl)-5-methyl-pyrazol-1-yl]methyl]-2-azaspiro[3.3]heptan-2-yl]-[6-[3-(1-hydroxycyclopropyl)-1,2,4-triazol-1-yl]-2-azaspiro[3.3]heptan-2-yl]methanone] |
| 907 nM | CCc1nc(C)c(CN2CC3(C2)CN(C(=O)N2CC4(CC(n5cnc(C6CC6)n5)C4)C2)C3)[nH]1 [Example 306, [6-(3-cyclopropyl-1,2,4-triazol-1-yl)-2-azaspiro[3.3]heptan-2-yl]-[6-[(2-ethyl-4-methyl-1H-imidazol-5-yl)methyl]-2,6-diazaspiro[3.3]heptan-2-yl]methanone] |
| 71.4 nM | O=C(N1CC2(CCN(Cc3cc(C(F)(F)F)on3)CC2)C1)N1CC2(CC(n3cnc(C(F)(F)F)n3)C2)C1 [Example 79, [7-[[5-(trifluoromethyl)isoxazol-3-yl]methyl]-2,7-diazaspiro[3.5]nonan-2-yl]-[6-[3-(trifluoromethyl)-1,2,4-triazol-1-yl]-2-azaspiro[3.3]heptan-2-yl]methanone] |
| 2860 nM | Cn1cnc(CN2CC3(C2)CN(C(=O)N2CC4(CC(n5cnc(C6CC6)n5)C4)C2)C3)c1 [Example 305, [6-(3-cyclopropyl-1,2,4-triazol-1-yl)-2-azaspiro[3.3]heptan-2-yl]-[6-[(1-methylimidazol-4-yl)methyl]-2,6-diazaspiro[3.3]heptan-2-yl]methanone] |
| 1.45 nM | O=C(N1CC2(CC(Cn3cc(C(F)(F)F)nn3)C2)C1)N1CC2(CC(n3cnc(C4CC4)n3)C2)C1 [Example 104, [6-(3-cyclopropyl-1,2,4-triazol-1-yl)-2-azaspiro[3.3]heptan-2-yl]-[6-[[4-(trifluoromethyl)triazol-1-yl]methyl]-2-azaspiro[3.3]heptan-2-yl]methanone] |
| 0.4 nM | Cc1cc(C(F)F)nn1CC1CC2(C1)CN(C(=O)N1CC3(CC(n4cnc(C(F)(F)F)n4)C3)C1)C2 [Example 94] |
| 251 nM | O=C(N1CC2(CCN(Cc3cc(C(F)(F)F)on3)CC2)C1)N1CC2(CC(n3cnc(C4(O)CC4)n3)C2)C1 [Example 81, [6-[3-(1-hydroxycyclopropyl)-1,2,4-triazol-1-yl]-2-azaspiro[3.3]heptan-2-yl]-[7-[[5-(trifluoromethyl)isoxazol-3-yl]methyl]-2,7-diazaspiro[3.5]nonan-2-yl]methanone] |
| 11.9 nM | O=C(N1CC2(CC(n3cnc(C4CC4)n3)C2)C1)N1CC2(CN(Cc3nc(C(F)(F)F)no3)C2)C1 [Example 173, [6-(3-cyclopropyl-1,2,4-triazol-1-yl)-2-azaspiro[3.3]heptan-2-yl]-[6-[[3-(trifluoromethyl)-1,2,4-oxadiazol-5-yl]methyl]-2,6-diazaspiro[3.3]heptan-2-yl]methanone] |
| 68.7 nM | O=C(N1CC2(CC(n3cnc(C(F)(F)F)n3)C2)C1)N1CC2(CN(Cc3nccn3C(F)(F)F)C2)C1 [Example 235, [6-[[1-(trifluoromethyl)imidazol-2-yl]methyl]-2,6-diazaspiro[3.3]heptan-2-yl]-[6-[3-(trifluoromethyl)-1,2,4-triazol-1-yl]-2-azaspiro[3.3]heptan-2-yl]methanone] |
| 2.2 nM | Cn1ncc(C(F)(F)F)c1CN1CC2(C1)CN(C(=O)N1CC3(CC(n4cnc(C5CC5)n4)C3)C1)C2 [Example 159, [6-(3-cyclopropyl-1,2,4-triazol-1-yl)-2-azaspiro[3.3]heptan-2-yl]-[6-[[2-methyl-4-(trifluoromethyl)pyrazol-3-yl]methyl]-2,6-diazaspiro[3.3]heptan-2-yl]methanone] |
| 636 nM | Cn1cnc(C#N)c1CN1CC2(C1)CN(C(=O)N1CC3(CC(n4cnc(C(F)(F)F)n4)C3)C1)C2 [Example 280, 1-methyl-5-[[2-[6-[3-(trifluoromethyl)-1,2,4-triazol-1-yl]-2-azaspiro[3.3]heptane-2-carbonyl]-2,6-diazaspiro[3.3]heptan-6-yl]methyl]imidazole-4-carbonitrile] |
